The text below walks through data of US9914722B2, “Compounds for treating spinal muscular atrophy” (PTC Therapeutics Inc., priority 2012, dated 2018).

The subject of one data set is Smn protein. As to the kind of experiment: Smn protein assay (Smn HTRF) in cultured cells. Type of data set: cell-based, human. To be noted: Homo sapiens, Fibroblast, GM03813 SMA Type 1 patient fibroblasts, 48 hours, HTRF; for maximal fold induction: 7-point concentration data, relative to vehicle, read-out: maximum fold (Fold) increase of Smn protein; for EC (1.5-fold): concentration producing 1.5 times Smn protein vs DMSO vehicle, read-out: EC1.5x for Smn protein expression. The procedure:
Smn Protein Assay in Cultured Cells
The Smn HTRF (homogeneous time resolved fluorescence) assay is used to quantify the level of Smn protein in SMA patient fibroblast cells treated with test compounds.
Protocol. Cells are thawed and cultured in DMEM-10% FBS for 72 hours. Cells are trypsinized, counted and re-suspended to a concentration of 25,000 cells/mL in DMEM-10% FBS. The cell suspension is plated at 5,000 cells per well in a 96 well microtiter plate and incubated for 3 to 5 hours. […] Test compounds are serially diluted 3.16-fold in 100% DMSO to generate a 7-point concentration curve. 1 μL of test compound solution is transferred to cell-containing wells and cells are incubated for 48 hours in a cell culture incubator (37° C., 5% CO2, 100% relateive humidity). Triplicate samples are set up for each test compound concentration. After 48 hours, the supernatant is removed from the wells and 25 μL of the RIPA lysis buffer, containing protease inhibitors, is added to the wells and incubated with shaking at room temperature for 1 hour. 25 μL of the diluent is added and then 35 μL of the resulting lysate is transferred to a 384-well plate, where each well contains 5 μL of the antibody solution (1:100 dilution of anti-SMN d2 and anti-SMN kryptate in SMN reconstitution buffer). The plate is centrifuged for 1 minute to bring the solution to the bottom of the wells, then incubated overnight at room temperature. Fluorescence for each well of the plate at 665 nm and 620 nm is measured on an EnVision multilabel plate reader (Perkin-Elmer).
The normalized fluorescence signal is calculated for each sample, Blank and vehicle control well by dividing the signal at 665 nm by the signal at 620 nm. Normalizing the signal accounts for possible fluorescence quenching due to the matrix effect of the lysate. The AF value (a measurement of Smn protein abundance as a percent value) for each sample well is calculated by subtracting the normalized average fluorescence for the Blank control wells from the normalized fluorescence for each sample well, then dividing this difference by the normalized average fluorescence for the Blank control wells and multiplying the resulting value by 100. The ΔF value for each sample well represents the Smn protein abundance from test compound-treated samples. The ΔF value for each sample well is divided by the ΔF value for the vehicle control wells to calculate the fold increase in Smn protein abundance relative to the vehicle control.
For compounds of Formula (I) or a form thereof disclosed herein, Table 9 provides the EC1.5x for Smn protein expression that was obtained from the 7-point concentration data generated for each test compound according to the procedure of Biological Example 7. The term “EC1.5x for Smn protein expression” is defined as that concentration of test compound that is effective in producing 1.5 times the amount of Smn protein in an SMA patient fibroblast cell compared to the amount produced from the DMSO vehicle control. An EC1.5x for Smn protein expression between >3 μM and ≦10 μM is indicated by one star (*), an EC1.5x between >1 μM and ≦3 μM is indicated by two stars (**), an EC1.5x between >0.3 μM and ≦1 μM is indicated by three stars (***) and an EC1.5x≦0.3 μM is indicated by four stars (****).
For compounds of Formula (I) or a form thereof disclosed herein, Table 10 provides the maximum fold (Fold) increase of Smn protein that was obtained from the 7-point concentration data generated for each test compound according to the procedure of Biological Example 7. A maximum fold increase ≦1.2 is indicated by one star (*), a fold increase between >1.2 and ≦1.35 is indicated by two stars (**), a fold increase between >1.35 and ≦1.5 is indicated by three stars (***), a fold increase between >1.5 and ≦1.65 is indicated by four stars (****) and a fold increase >1.65 is indicated by five stars (*****).
For orientation: TR-FRET usually uses a lanthanide donor and a delayed reading to cut background.

The test system of data set [1] is full length SMN2 minigene mRNA containing SMN2 exon 7 (SMN2-A minigene). As to the kind of experiment: SMN2 minigene mRNA splicing RT-qPCR assay in cultured cells. In kind it is cell-based, human. The following applies: Homo sapiens, HEK293-H; HEK293H cells stably transfected with SMN2-A minigene, 24 hours, 7-point concentration curve; concentration giving 1.5-fold SMN2 full length mRNA vs vehicle; read-out: EC1.5x for production of full length SMN2 mRNA. The procedure:
SMN2 Minigene mRNA Splicing RT-qPCR Assay in Cultured Cells
The reverse transcription-quantitative PCR-based (RT-qPCR) assay is used to quantify the level of the full length SMN2 minigene mRNA containing SMN2 exon 7 in a HEK293H cell line stably transfected with said minigene and treated with a test compound.
Protocol. HEK293H cells stably transfected with the SMN2-A minigene construct described above (10,000 cells/well) are seeded in 200 μL of cell culture medium (DMEM plus 10% FBS, with 200 μg/mL hygromycin) in 96-well flat-bottom plates and the plate is immediately swirled to ensure proper dispersal of cells, forming an even monolayer of cells. Cells are allowed to attach for at least 4-6 hours. Test compounds are serially diluted 3.16-fold in 100% DMSO to generate a 7-point concentration curve. A solution of test compound (1 μL, 200× in DMSO) is added to each cell-containing well and the plate is incubated for 24 hours in a cell culture incubator (37° C., 5% CO2, 100% relative humidity). Two replicates are prepared for each test compound concentration. The cells are then lysed in Cells-To-Ct lysis buffer and the lysate is stored at −80° C.
Primer SMN Forward A (SEQ ID NO. 1) hybridizes to a nucleotide sequence in exon 7 (nucleotide 22 to nucleotide 40), primer SMN Reverse A (SEQ ID NO. 2) hybridizes to a nucleotide sequence in the coding sequence of Firefly luciferase, SMN Probe A (SEQ ID NO. 3) hybridizes to a nucleotide sequence in exon 7 (nucleotide 50 to nucleotide 54) and exon 8 (nucleotide 1 to nucleotide 21). The combination of these three oligonucleotides detects only SMN1 or SMN2 minigenes (RT-qPCR) and will not detect endogenous SMN1 or SMN2 genes.
The SMN forward and reverse primers are used at final concentrations of 0.4 μM. The SMN probe is used at a final concentration of 0.15 μM. The GAPDH primers are used at final concentrations of 0.2 μM and the probe at 0.15 μM.
The SMN2-minigene GAPDH mix (15 μL total volume) is prepared by combining 7.5 μL of 2×RT-PCR buffer, 0.4 μL of 25×RT-PCR enzyme mix, 0.75 μL of 20×GAPDH primer-probe mix, 4.0075 μL of water, 2 μL of 10-fold diluted cell lysate, 0.06 μL of 100 μM SMN forward primer, 0.06 μL of 100 μM SMN reverse primer, and 0.225 μL of 100 μM SMN probe.
PCR is carried out at the following temperatures for the indicated time: Step 1: 48° C. (15 min); Step 2: 95° C. (10 min); Step 3: 95° C. (15 sec); Step 4: 60° C. (1 min); then repeat Steps 3 and 4 for a total of 40 cycles.
Each reaction mixture contains both SMN2-A minigene and GAPDH primers/probe sets (multiplex design), allowing simultaneous measurement of the levels of two transcripts.
Two SMN spliced products are generated from the SMN2 minigene. The first spliced product containing exon 7, corresponding to SMN2 full length mRNA, is referred to herein using the term “SMN2 minigene FL.” The second spliced product lacking exon 7 is referred to herein using the term “SMN2 minigene Δ7.”
The increase of SMN2 minigene FL mRNA relative to that in cells treated with vehicle control is determined from real-time PCR data using a modified ΔΔCt method (as described in Livak and Schmittgen, Methods, 2001, 25:402-8). The amplification efficiency (E) is calculated from the slope of the amplification curve for SMN2 minigene FL and GAPDH mRNA individually. The abundance of SMN2 minigene FL and GAPDH mRNA are then calculated as (1+E)^−Ct, where Ct is the threshold value for each amplicon. The abundance of SMN2 minigene FL is normalized to GAPDH abundance. The normalized SMN2 minigene FL abundance from test compound-treated samples is then divided by normalized SMN2 minigene FL abundance from vehicle-treated cells to determine the level of SMN2 FL mRNA relative to vehicle control. […]
For orientation: Real-time PCR tracks product formation cycle by cycle.

Usually melting point stands for the temperature, or range, at which the solid turns liquid.

Molecule `C[C@@H]1CN(c2ccc3oc(-c4ccccn4)cc(=O)c3c2)C[C@H](C)N1` [Cpd 13, 6-[(3R,5S)-3,5-dimethylpiperazin-1-yl]-2-(pyridin-2-yl)-4H-chromen-4-one] registered a melting point of 166 to 168 °C. Moreover, the maximal fold induction in the data set with Smn protein lay in the range of 1.35 to 1.5. Moreover, the EC (1.5-fold) in data set [1] lay in the range of 1 to 3 µM.
Turning to `O=c1cc(-c2ccccn2)oc2ccc(N3CCCNCC3)cc12` [Cpd 14, 6-(1,4-diazepan-1-yl)-2-(pyridin-2-yl)-4H-chromen-4-one], the melting point fell in the range of 170 to 172 °C. Also, the maximal fold induction in the data set on Smn protein was ≤ 1.2. Besides, the EC (1.5-fold) in data set [1] lay in the range of 3 to 30 µM.
`C[C@@H]1CN(c2ccc3oc(-c4ccccn4)cc(=O)c3c2)CCN1` [Cpd 15, 6-[(3R)-3-methylpiperazin-1-yl]-2-(pyridin-2-yl)-4H-chromen-4-one]: the melting point lay in the range of 140 to 142 °C. In the data set with Smn protein, the maximal fold induction is 1.5 to 1.65 and the EC (1.5-fold) lay in the range of 3 to 10 µM. The EC (1.5-fold) in data set [1] was in the range of 1 to 3 µM.
In the same order, the values of `C[C@@H]1CN(c2ccc3oc(-c4cn5ccccc5n4)cc(=O)c3c2)CCN1` [Cpd 16, 2-(imidazo[1,2-a]pyridin-2-yl)-6-[(3R)-3-methylpiperazin-1-yl]-4H-chromen-4-one] are 210 to 215 °C, > 1.65, 1 to 3 µM and 1 to 3 µM.
In the same order, the values of `O=c1cc(-c2cn3ccccc3n2)oc2ccc(N3CCCNCC3)cc12` [Cpd 18, 6-(1,4-diazepan-1-yl)-2-(imidazo[1,2-a]pyridin-2-yl)-4H-chromen-4-one] are 198 to 200 °C, > 1.65, 3 to 10 µM and 3 to 30 µM.
In the same order, the values of `CN1CCCN(c2ccc3oc(-c4cn5ccccc5n4)cc(=O)c3c2)CC1` [Cpd 19, 2-(imidazo[1,2-a]pyridin-2-yl)-6-(4-methyl-1,4-diazepan-1-yl)-4H-chromen-4-one] are 188 to 190 °C, > 1.65, 1 to 3 µM and 3 to 30 µM.
`COc1ccc(-c2cc(=O)c3cc(N4CCNCC4)ccc3o2)cc1OC` [Cpd 20, 2-(3,4-dimethoxyphenyl)-6-(piperazin-1-yl)-4H-chromen-4-one] yielded a melting point of 177 to 179 °C. Besides, in the data set with Smn protein, the maximal fold induction is > 1.65 and the EC (1.5-fold) lay in the range of 0.3 to 1 µM. In data set [1], the EC (1.5-fold) was ≤ 0.1 µM.
On the same counts, the results for `COc1ccc(-c2cc(=O)c3cc(N4CCN(C)CC4)ccc3o2)cc1OC` [Cpd 21, 2-(3,4-dimethoxyphenyl)-6-(4-methylpiperazin-1-yl)-4H-chromen-4-one] are 184 to 186 °C, > 1.65, 1 to 3 µM and 0.3 to 1 µM.
On the same counts, the results for `CCN1CCN(c2ccc3oc(-c4ccc(OC)c(OC)c4)cc(=O)c3c2)CC1` [Cpd 22, 2-(3,4-dimethoxyphenyl)-6-(4-ethylpiperazin-1-yl)-4H-chromen-4-one] are 188 to 190 °C, > 1.65, 1 to 3 µM and 0.3 to 1 µM.
In the same order, the values of `COc1ccc(-c2cc(=O)c3cc(N4CCN[C@H](C)C4)ccc3o2)cc1OC` [Cpd 23, 2-(3,4-dimethoxyphenyl)-6-[(3R)-3-methylpiperazin-1-yl]-4H-chromen-4-one] are 181 to 183 °C, 1.5 to 1.65, 0.3 to 1 µM and 0.1 to 0.3 µM.
In the case of `COc1ccc(-c2cc(=O)c3cc(N4C[C@@H](C)N[C@@H](C)C4)ccc3o2)cc1OC` [Cpd 24, 2-(3,4-dimethoxyphenyl)-6-[(3R,5S)-3,5-dimethylpiperazin-1-yl]-4H-chromen-4-one], the melting point was 206 to 208 °C. In the data set with Smn protein, the maximal fold induction is > 1.65 and the EC (1.5-fold) was in the range of 1 to 3 µM. Also, the EC (1.5-fold) in data set [1] lay in the range of 0.3 to 1 µM.
In turn, `COc1ccc(-c2cc(=O)c3cc(N4CCCNCC4)ccc3o2)cc1OC` [Cpd 25, 6-(1,4-diazepan-1-yl)-2-(3,4-dimethoxyphenyl)-4H-chromen-4-one] displayed a melting point of 152 to 154 °C. In the data set on Smn protein, the maximal fold induction fell in the range of 1.35 to 1.5. In data set [1], the EC (1.5-fold) lay in the range of 3 to 30 µM.
